Experimental findings from patent US20020107269A1, “Benzoxazole LPAAT-B inhibitors and uses thereof” (CELL THERAPEUTICS, INC., priority 2000, published 2002) are described below.

The structures appear in SMILES notation.

Test [1] relates to human breast tumor MCF-7 cells. Description: Proliferation of MCF-7 cells by CyQUANT analysis. It is filed as cell-based. As to conditions: MCF-7 cells in microplates, FIG. 5E. The procedure: To determine whether administration of LPAAT-β inhibitor would have any effect on cell proliferation in tissue culture, proliferation of human breast tumor MCF-7 cells in microplates were measured by CyQUANT analysis using a green-fluorescent nucleic acid stain optimized to produce a linear detection range from 50 to 50,000 cells in 200 μl volume (Molecular Probes, Eugene, Oreg.) in the presence of various concentrations of a LPAAT-β inhibitor.

For another test, the target named is T1, LPAAT-β (Homo sapiens, UniProt O15120).
T1 construct: the full-length human LPAAT-β cDNA was amplified by PCR; poly-histidine tag (N); made in house; host or cells: Sf9 insect cells (baculovirus, pFastBac HTc); membrane fraction used
T1 sequence (O15120 24-278): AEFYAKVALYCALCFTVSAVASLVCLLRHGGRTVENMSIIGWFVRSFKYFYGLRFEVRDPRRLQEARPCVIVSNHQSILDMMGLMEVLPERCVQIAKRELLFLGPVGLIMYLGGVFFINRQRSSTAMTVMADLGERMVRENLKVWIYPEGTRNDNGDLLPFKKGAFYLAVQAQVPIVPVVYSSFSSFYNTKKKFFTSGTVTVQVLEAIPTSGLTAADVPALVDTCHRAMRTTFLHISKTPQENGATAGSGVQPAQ
Nature of the test: LPAAT-β colorimetric assay (DTNB detection of released CoA). As to conditions: Sf9 cell membrane overexpressing LPAAT-β; 18:1-CoA and sn-1-18:1 lysoPA; absorbance at 405 nm; read-out: LPAATβ Colorimetric Assay IC50. It is filed as biochemical. From the text:
For the construction of Baculovirus expression vectors, the full-length human LPAAT-β cDNA was amplified by PCR from the DNA template pCE9.LPAAT-β (West et al., DNA Cell Biol. 16:691-701 (1997)) using the primers 5′-TGATATCCGAAGAAGATCTTATGGAGCTGTGGCCGTGTC-3′ (olpb1F) and 5′-CAGGCTCTAG ACTACTGGGC CGGCTGCAC-3′ (olpb1R). The ˜870 bp fragment generated was reamplified by PCR using the primers 5′ CCTACGTCG ACATGGAACAAAAATTGATATCCGAAGAAGATC-3′ (olpb2F) and 5′-CAGGCTCTAG ACTACTGGGC CGGCTGCAC-3′ (olpb1R). The ˜890 bp fragment generated was then cleaved with Sal I and Xba I for insertion into pFastBac™ HTc vector (Life Technologies, Gaithersberg, Md.) between the Sal I and Xba I sites for the generation of the plasmid pFB.LPAAT-β. This plasmid was then transformed into E. coli DH10Bac™ (Life Technologies, Gaithersberg, Md.) for the generation of recombinant Bacmid DNA for transfection into HighFive (Invitrogen, San Diego, Calif.) or SF9 insect cells for the production of recombinant Baculovirus stocks using the protocol described in the Bac-to-Bac® Baculovirus Expression System (Life Technologies, Gaithersberg, Md.), a eukaryotic expression system for generating recombinant baculovirus through site-specific transposition in E. coli. Viral stocks harvested from the transfected cells can then be used to infect fresh insect cells for the subsequent expression of LPAAT-β fusion protein with a poly-histidine tag and a myc-epitope near its N-terminus. The membrane fraction from these Sf9 cells would be the source of LPAAT enzyme.
For the preparation of membranes From Sf9 Cells, all steps are performed on ice or at 4° C. Sf9 cell pellets ([…]) were thawed and resuspended in 1-2 ml of buffer A (20 mM Hepes, pH 7.5, 1 mM DTT, 1 mM EDTA, 20% w/v glycerol, 1 mM Benzamidine, 1 μg/ml soybean trypsin inhibitor (SBTI), 1 μg/ml pepstatin A) w/o DTT but with 1 mM Pefabloc. The cells were lysed by sonication using a Branson Sonifier at output=2, duty cycle=2, 10 pulses each at 10 s. with the tip of small sonicator probe submerged but not touching the walls. DTT was then added to 1 mM from a 1M stock. The samples were centrifuged at 1500 rpm for 5 min. The low speed supernatant was saved and centrifuged (TLA 100.3 rotor, polycarbonate tubes, 2 ml/tube or 1.5 ml/tube minimum) at 100000×g for 1 hr. The high speed pellet was resuspend in Buffer A with a probe sonicator (10 pulses @ output #2 and duty cycle 20%) as a source of LPAAT enzyme.
LPAAT-β catalyzes the transfer of an acyl group from a donor such as acyl-CoA to LPA. The transfer of the acyl group from acyl-CoA to LPA leads to the release of free CoA, which can be reacted with the thiol reagent, 5,5′-dithiobis(2-nitrobenzoic acid) (DTNB). The reaction between DTNB and the free sulfhydryl group from CoA generates a yellow-colored product, 3-carboxylato-4-nitrothiophenolate (CNP), that absorbs at 413 nm. LPAAT-β derived from Sf9 cell membrane overexpressing LPAAT-β were resuspended in HEPES saline buffer (20 mM HEPES pH 7.5, 150 mM NaCl), 1 mg/ml BSA and 72 μl aliquots were distributed into 96-well microtiter plates. 8 μl of compound of interest at 200 μM dissolved in 100% DMSO was added into each well. 20 μl of 1 mM 18:1-CoA and 1 mM sn-1-18:1 lysoPA was then added to each well to initiate the reaction and allowed to run at room temperature for 25 min. 100 μl of 1 mM DTNB in 100% ethanol was then added to each well to quench the reaction and for color development. The absorbance at 405 nm, measured using a spectrophotometer plate reader, is proportional to the activity of LPAAT-β in the sample. This calorimetric assay was used for the high throughput screening of LPAAT inhibitors. […] Compounds that gave a reading of less than 0.06 arbitrary units (indicated by arrow on right margin) were selected for further study.

Turning to `CCC(=O)Nc1ccc(Cl)c(-c2nc3ccc(C)cc3o2)c1` [N-[4-Chloro-3-(6-methyl-benzooxazol-2-yl)-phenyl]-propionamide], in test [1], the “concentration effective in blocking the proliferation of MCF-7 cells” value is ≥ 20 µM. Turning to `COC(=O)Nc1ccc(Cl)c(-c2nc3cc(Cl)ccc3s2)c1` [CT-32191, [4-Chloro-3-(5-chloro-benzothiazol-2-yl)-phenyl]-carbamic Acid Methyl Ester], the 50% inhibitory concentration (IC50) on LPAAT-β stood at 40 nM.

On to `C#CCOC(=O)Nc1ccc(Cl)c(-c2nc3cc(C(F)(F)F)ccc3o2)c1` [CT-32173, (4-Chloro-3-(5-trifluoromethyl-benzooxazol-2-yl)-phenyl)-carbamic Acid Prop-2-ynyl Ester], for which the IC50 at LPAAT-β was determined as 140 nM. `N#CCC(=O)Nc1ccc(Cl)c(-c2nc3cccnc3o2)c1` [CT-32271, N-(4-Chloro-3-oxazolo[5,4,b]pyridin-2-yl-phenyl)-2-cyano-acetamide]: the IC50 at LPAAT-β worked out at 190 nM.

Usually IC50 stands for the concentration needed to halve the response being measured.
